US20230356105A1, “TETRAAZADODECANE BASED CHELATING AGENTS FOR SEPARATION OF RARE EARTH ELEMENTS AND METHOD THEREFOR” (Ustav Organicke Chemie a Biochemie AV CR V.V.I., priority 2020, published 2023)
Values joined by “and” are separate entries in the source; they are usually repeats but may differ in a detail not shown here. Equal values may be shown once.

Tests used:
Format in all cases: physicochemical
[1] = Separation of Ho/Er mixture using L1 with repeated dissolution of the precipitate with heat (Example 12); details: for Precipitate concentration [mM] Ho: dissolved to 200 μL
Method: The experiment was conducted according to Example 11), the difference being that instead of dissolving the precipitate in acid and neutralizing by addition of base, 200 μL of water were added to the precipitate and the suspension was stirred at 80° C. for 24 hours. Full dissolution of the precipitate was not achieved during this process, but a saturated solution was formed. After cooling to room temperature, the mixtures were processed as though the precipitation had occurred normally. The resulting absolute concentrations of both metals in the supernatants and precipitates, as well as calculated values of the separation factor Er/Ho according to the formula from Example 11) are summarized in Table 6. […] Repetition of the cycles in this experiment also led to a higher degree of enrichment for one of the rare-earth elements. The average separation factor value was 2.97.

[2] = Separation of industrially relevant binary mixtures by precipitation using L1, L2 and L3 (Example 10); details: supernatant
Method: Analogous to Example 7), three sets of reaction mixtures with two metals and either compound L1, L2, or L3 were prepared in a 96-well plate with the following differences: each well was equipped with one PTFE-coated magnetic stir bar, the well plate was sealed with a silicon cover, and the reaction mixtures were stirred on a magnetic stirrer for 2 days at room temperature. Analogous to Example 7), the well plate was then centrifuged and concentrations of the metals were determined using ICP-OES. […] It is evident from the results that certain degrees of enrichment are achieved for very different combinations of metals, and that ligands L1, L2, and L3 have different selectivities for given combinations of metals.

[3] = Separation of Nd/Pr mixture by repeated precipitation using L5 and α-HIBA (Example 19); details: for Precipitate concentration [mM] Nd / precipitate concentration [mM] Pr: dissolved to 200 μL
Method: Stock solutions were pipetted into 4 mL glass vials to prepare reaction mixtures with concentrations as follows: • 1. 11 mM (1.1 eq) chelator L5 • 2. 5 mM (0.5 eq) PrCl3 • 3. 5 mM (0.5 eq) NdCl3 • 4. […] (4 eq) α-HIBA pH=6.5 • 5. 500 mM (50 eq) MOPS pH=7
Three aqueous reaction mixtures, numbered 1-3, were prepared with a total volume of 2 mL each and were treated identically throughout the process. A PTFE-coated magnetic stir bar was added to each and the reaction mixtures were stirred on a magnetic stirrer overnight at room temperature. After 18 hours, a 200 μL aliquot of the resulting suspension was taken from each vial and labelled as Al, A2, or A3, according to the reaction mixture number it was taken from. The aliquots were then centrifuged in a plastic Eppendorf centrifuge tube. The supernatant was carefully pipetted from each and transferred to a new set of tubes. To the precipitate was added 200 μL 1 M HCl and the mixture was stirred until full dissolution (about 1 hour at room temperature). The Nd and Pr content of these precipitate and supernatant samples was determined by ICP-OES. The remaining 1800 μL of reaction mixture were centrifuged in plastic Eppendorf centrifuge vials, and the supernatant was set aside. A sample of the supernatant was analysed on HPLC-MS and peak areas were compared to those of a standard 10 mM chelate solution; this allowed for calculation of the approximate concentration of chelate remaining in solution, and therefore of the quantity of chelate which had precipitated. The total volume for subsequent reactions was scaled according to this information, such that the concentration of chelate in solution prior to precipitation was 10 mM, even as the net quantity of chelate present was reduced. The precipitate, then, was dissolved by addition of 25 molar equivalents of 1 M HCl and transferred to a clean 4 mL glass vial with a PTFE-coated magnetic stir bar. 4 molar equivalents of a-HIBA were added to this vial, followed by 50 molar equivalents 3 M MOPS pH=7, the necessary calculated volume of water, and 25 molar equivalents 2 M NaOH to finish neutralising the reaction mixture. (The final reaction volume here was not so important as the final reaction concentrations.) The reaction mixtures were again stirred on a magnetic stirrer at room temperature overnight. After 18 hours, the resulting suspensions were treated in the same manner as before, with 200 μL aliquots (labelled as B1, B2, B3) taken for ICP-OES determination of the Nd and Pr content of the precipitate and supernatant. The remaining 1600 μL of reaction mixture were centrifuged, and the supernatant was analysed by HPLC-MS; the precipitate was treated as before to again yield a reaction solution with an initial concentration of 10 mM of chelate. The reaction mixtures were stirred overnight for the third repetition of processing, and 200 μL aliquots (C1, C2, C3) were again treated for ICP-OES determination of Nd and Pr content in the precipitate and supernatant after 18 hours. The resulting absolute concentrations of both metals in the supernatants and precipitates, as well as calculated values of the separation factor Nd/Pr according to the formula from Example 11), are summarized in Table 13. […] The average separation factor was 1.69.

With `O=C(O)CN1CCN(CC(=O)O)CCN(Cc2ccccc2)CCN(CC(=O)O)CC1` [L1, 2,2′,2″-(10-benzyl-1,4,7,10-tetraazacyclododecane-1,4,7-triyl)triacetic Acid] the “average separation factor value Er/Ho” value ([1]; all samples) was 2.97, the “Separation factor Er/Ho” value ([1]; group A, 1st cycle) was 2.89 and 2.84 and 3.04 and the “Supernatant concentration [mM] Ho” value ([1]; group A, 1st cycle) was 0.36 mM and 0.33 mM. For the same compound, the “Precipitate concentration [mM] Ho” value ([1]; group A, 1st cycle) was 4.53 mM and 4.46 mM and 4.68 mM, the “Precipitate concentration [mM] Ho” value ([1]; group A, 1st cycle, mean) was 4.56 mM and the “Supernatant concentration [mM] Ho” value ([1]; group A, 1st cycle, mean) was 0.35 mM. The “Separation factor Er/Ho” value ([1]; group B, 2nd cycle) was 2.69 and 2.94 and 3.69, the “Supernatant concentration [mM] Ho” value ([1]; group B, 2nd cycle (water, 80° C., 24 hours)) was 0.27 mM and 0.32 mM and 0.25 mM and the “Supernatant concentration [mM] Ho” value ([1]; group B, 2nd cycle (water, 80° C., 24 hours), mean) was 0.28 mM. The “Precipitate concentration [mM] Ho” value ([1]; group B, 2nd cycle) was 3.89 mM and 3.98 mM and 3.64 mM, the “Precipitate concentration [mM] Ho” value ([1]; group B, 2nd cycle, mean) was 3.84 mM and the “Separation factor Er/Ho” value ([1]; group C, 3rd cycle) was 2.38 and 2.79 and 3.47. The “Supernatant concentration [mM] Ho” value ([1]; group C, 3rd cycle (water, 80° C., 24 hours)) was 0.39 mM and 0.37 mM and 0.27 mM, the “Supernatant concentration [mM] Ho” value ([1]; group C, 3rd cycle (water, 80° C., 24 hours), mean) was 0.34 mM and the “Precipitate concentration [mM] Ho” value ([1]; group C, 3rd cycle) was 3.16 mM and 3.13 mM and 3.75 mM. For the same compound, the “Precipitate concentration [mM] Ho” value ([1]; group C, 3rd cycle, mean) was 3.35 mM, the “[mM] M1” value ([2]; M1/M2=Eu/Y) was 0.118 mM and the “[mM] M2” value ([2]; M1/M2=Eu/Y) was 0.265 mM. The “[mM] M1” value ([2]; M1/M2=La/Ce) was 0.603 mM, the “[mM] M2” value ([2]; M1/M2=La/Ce) was 0.388 mM and the “[mM] M1” value ([2]; M1/M2=Nd/Ce) was 0.397 mM. For the same compound, the “[mM] M2” value ([2]; M1/M2=Nd/Ce) was 0.038 mM, the “[mM] M1” value ([2]; M1/M2=Nd/Dy) was 0.204 mM and the “[mM] M2” value ([2]; M1/M2=Nd/Dy) was 0.302 mM. For the same compound, the “[mM] M1” value ([2]; M1/M2=Nd/La) was 0.177 mM, the “[mM] M2” value ([2]; M1/M2=Nd/La) was 0.559 mM and the “[mM] M1” value ([2]; M1/M2=Nd/Pr) was 0.530 mM. The “[mM] M2” value ([2]; M1/M2=Nd/Pr) was 0.572 mM, the “[mM] M1” value ([2]; M1/M2=Nd/Tb) was 0.325 mM and the “[mM] M2” value ([2]; M1/M2=Nd/Tb) was 0.142 mM. For the same compound, the “[mM] M1” value ([2]; M1/M2=Pr/Ce) was 0.186 mM, the “[mM] M2” value ([2]; M1/M2=Pr/Ce) was 0.285 mM and the “[mM] M1” value ([2]; M1/M2=Pr/Dy) was 0.216 mM. The “[mM] M2” value ([2]; M1/M2=Pr/Dy) was 0.157 mM, the “[mM] M1” value ([2]; M1/M2=Pr/La) was 0.246 mM and the “[mM] M2” value ([2]; M1/M2=Pr/La) was 0.569 mM. For the same compound, the “[mM] M1” value ([2]; M1/M2=Tb/Dy) was 0.216 mM, the “[mM] M2” value ([2]; M1/M2=Tb/Dy) was 0.284 mM and the “[mM] M1” value ([2]; M1/M2=Tb/Eu) was 0.206 mM. For the same compound, the “[mM] M2” value ([2]; M1/M2=Tb/Eu) was 0.159 mM, the “[mM] M1” value ([2]; M1/M2=Tb/Pr) was 0.116 mM and the “[mM] M2” value ([2]; M1/M2=Tb/Pr) was 0.211 mM. For the same compound, the “[mM] M1” value ([2]; M1/M2=Tb/Y) was 0.143 mM and the “[mM] M2” value ([2]; M1/M2=Tb/Y) was 0.361 mM.
In the case of `O=C(O)CN1CCN(CC(=O)O)CCN(Cc2cccc3ccccc23)CCN(CC(=O)O)CC1` [L5, 2,2′,2″-(10-(naphthalene-1-ylmethyl)-1,4,7,10-tetraazacyklododekane-1,4,7-triyl)triacetic acid], the “Supernatant concentration [mM] Nd” value ([3]; A, 1st precipitation) is reported as 1.16 mM and 1.49 mM, the “supernatant concentration [mM] Pr” value ([3]; A, 1st precipitation, 20 mM (4 eq) α-HIBA) is reported as 0.73 mM and 1.00 mM and 0.72 mM and the “supernatant concentration [mM] Pr” value ([3]; A, 1st precipitation, 20 mM (4 eq) α-HIBA, mean) is reported as 0.82 mM. The “Precipitate concentration [mM] Nd” value ([3]; A, 1st precipitation) was 3.34 mM and 3.17 mM and 3.59 mM, the “precipitate concentration [mM] Pr” value ([3]; A, 1st precipitation) was 3.57 mM and 3.50 mM and 3.83 mM and the “Precipitate concentration [mM] Nd” value ([3]; A, 1st precipitation, mean) was 3.37 mM. The “precipitate concentration [mM] Pr” value ([3]; A, 1st precipitation, mean) was 3.63 mM, the “Supernatant concentration [mM] Nd” value ([3]; A, 1st precipitation, mean) was 1.27 mM and the “Supernatant concentration [mM] Nd” value ([3]; B, 2nd precipitation) was 0.94 mM and 0.79 mM and 0.88 mM. The “supernatant concentration [mM] Pr” value ([3]; B, 2nd precipitation) was 0.63 mM and 0.56 mM and 0.58 mM, the “Precipitate concentration [mM] Nd” value ([3]; B, 2nd precipitation) was 3.81 mM and 3.53 mM and 3.91 mM and the “precipitate concentration [mM] Pr” value ([3]; B, 2nd precipitation) was 4.45 mM and 4.22 mM and 4.52 mM. For the same compound, the “Precipitate concentration [mM] Nd” value ([3]; B, 2nd precipitation, mean) was 3.75 mM, the “precipitate concentration [mM] Pr” value ([3]; B, 2nd precipitation, mean) was 4.40 mM and the “Supernatant concentration [mM] Nd” value ([3]; B, 2nd precipitation, mean) was 0.87 mM. For the same compound, the “supernatant concentration [mM] Pr” value ([3]; B, 2nd precipitation, mean) was 0.59 mM, the “Supernatant concentration [mM] Nd” value ([3]; C, 3rd precipitation) was 0.87 mM and 0.93 mM and 0.75 mM and the “supernatant concentration [mM] Pr” value ([3]; C, 3rd precipitation) was 0.66 mM and 0.74 mM and 0.56 mM. The “Precipitate concentration [mM] Nd” value ([3]; C, 3rd precipitation) was 3.70 mM and 3.29 mM and 4.06 mM, the “precipitate concentration [mM] Pr” value ([3]; C, 3rd precipitation) was 4.70 mM and 4.31 mM and 4.98 mM and the “Precipitate concentration [mM] Nd” value ([3]; C, 3rd precipitation, mean) was 3.68 mM. For the same compound, the “precipitate concentration [mM] Pr” value ([3]; C, 3rd precipitation, mean) was 4.66 mM, the “Supernatant concentration [mM] Nd” value ([3]; C, 3rd precipitation, mean) was 0.85 mM and the “supernatant concentration [mM] Pr” value ([3]; C, 3rd precipitation, mean) was 0.65 mM.
